Measurements: patent US12037344B2, “NLRP3 modulators” (INNATE TUMOR IMMUNITY, INC., priority 2018, dated 2024)
pEC50: −log10 of the molar value. Where two headings read alike, the source gives them in different places.

Legend:
THP-1 cells = assay: Measurement of IL-1β production, hTRF protocol (second alternative procedure), THP-1 cells; assay type: cell-based, human; settings: Homo sapiens, THP-1, IL-1β production, read-out: NLRP3 hILIB EC50
How it was run: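 Compounds, dilution series starting at a final 10 μM, were incubated 2 hours at 37° C with PMA-differentiated THP-1 cells (50 ng/ml overnight; 50,000 cells/well, 2% FBS RPMI). Released IL-1β quantified in supernatant by hTRF kit with 1:40 antibody dilution, 4° C overnight, 665/615 nm ratio.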

TLR7 = target: T1, TLR7 (Homo sapiens, UniProt Q9NYK1); assay: In vitro human TLR7 binding reporter assay (HEK-Blue, NF-kB/AP1-inducible SEAP); assay type: cell-based; settings: read-out: TLR7 Agonist EC50
T1 construct: human HEK-Blue cells co-expressing a TLR7 or TLR8 gene
T1 sequence (Q9NYK1 27-1049): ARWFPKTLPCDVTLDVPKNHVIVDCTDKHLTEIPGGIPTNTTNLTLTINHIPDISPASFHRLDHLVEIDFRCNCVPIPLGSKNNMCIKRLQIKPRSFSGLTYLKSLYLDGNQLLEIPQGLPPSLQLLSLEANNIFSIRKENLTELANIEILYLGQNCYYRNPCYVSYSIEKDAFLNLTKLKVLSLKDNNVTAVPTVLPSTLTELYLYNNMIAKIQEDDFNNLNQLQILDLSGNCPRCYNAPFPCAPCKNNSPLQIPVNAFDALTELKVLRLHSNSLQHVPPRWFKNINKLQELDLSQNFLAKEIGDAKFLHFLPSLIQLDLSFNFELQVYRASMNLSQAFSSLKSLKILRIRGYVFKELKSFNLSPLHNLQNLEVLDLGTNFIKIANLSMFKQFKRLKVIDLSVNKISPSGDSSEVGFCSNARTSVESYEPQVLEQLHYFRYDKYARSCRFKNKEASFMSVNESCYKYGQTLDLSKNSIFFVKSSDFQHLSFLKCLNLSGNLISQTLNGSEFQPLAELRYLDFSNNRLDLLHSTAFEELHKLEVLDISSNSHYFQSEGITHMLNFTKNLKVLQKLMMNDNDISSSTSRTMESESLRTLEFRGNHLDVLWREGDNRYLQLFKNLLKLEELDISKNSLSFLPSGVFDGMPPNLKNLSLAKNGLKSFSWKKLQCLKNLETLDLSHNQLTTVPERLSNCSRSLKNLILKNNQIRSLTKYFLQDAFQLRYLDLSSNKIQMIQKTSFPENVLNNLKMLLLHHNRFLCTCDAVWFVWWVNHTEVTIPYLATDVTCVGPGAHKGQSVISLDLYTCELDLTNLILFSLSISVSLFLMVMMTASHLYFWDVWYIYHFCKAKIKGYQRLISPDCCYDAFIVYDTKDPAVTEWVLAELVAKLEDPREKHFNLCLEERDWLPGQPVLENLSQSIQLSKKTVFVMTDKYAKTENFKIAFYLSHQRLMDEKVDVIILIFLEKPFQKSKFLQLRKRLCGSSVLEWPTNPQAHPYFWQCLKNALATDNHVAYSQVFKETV
How it was run: (§1)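 HEK-Blue cells expressing human TLR7 or TLR8 with NF-kB/AP1-inducible SEAP reporter, plated 24 h, then compound-treated 18 h at 37° C, 5% CO2. EC50 normalized to 100% Ymax set by 50 μM reference standard.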

TLR8 = target: T2, TLR8 (Homo sapiens, UniProt Q9NR97); assay: In vitro human TLR8 binding reporter assay (HEK-Blue, NF-kB/AP1-inducible SEAP); assay type: cell-based; settings: read-out: TLR8 Agonist EC50
T2 construct: human HEK-Blue cells co-expressing a TLR7 or TLR8 gene
T2 sequence (Q9NR97 27-1041): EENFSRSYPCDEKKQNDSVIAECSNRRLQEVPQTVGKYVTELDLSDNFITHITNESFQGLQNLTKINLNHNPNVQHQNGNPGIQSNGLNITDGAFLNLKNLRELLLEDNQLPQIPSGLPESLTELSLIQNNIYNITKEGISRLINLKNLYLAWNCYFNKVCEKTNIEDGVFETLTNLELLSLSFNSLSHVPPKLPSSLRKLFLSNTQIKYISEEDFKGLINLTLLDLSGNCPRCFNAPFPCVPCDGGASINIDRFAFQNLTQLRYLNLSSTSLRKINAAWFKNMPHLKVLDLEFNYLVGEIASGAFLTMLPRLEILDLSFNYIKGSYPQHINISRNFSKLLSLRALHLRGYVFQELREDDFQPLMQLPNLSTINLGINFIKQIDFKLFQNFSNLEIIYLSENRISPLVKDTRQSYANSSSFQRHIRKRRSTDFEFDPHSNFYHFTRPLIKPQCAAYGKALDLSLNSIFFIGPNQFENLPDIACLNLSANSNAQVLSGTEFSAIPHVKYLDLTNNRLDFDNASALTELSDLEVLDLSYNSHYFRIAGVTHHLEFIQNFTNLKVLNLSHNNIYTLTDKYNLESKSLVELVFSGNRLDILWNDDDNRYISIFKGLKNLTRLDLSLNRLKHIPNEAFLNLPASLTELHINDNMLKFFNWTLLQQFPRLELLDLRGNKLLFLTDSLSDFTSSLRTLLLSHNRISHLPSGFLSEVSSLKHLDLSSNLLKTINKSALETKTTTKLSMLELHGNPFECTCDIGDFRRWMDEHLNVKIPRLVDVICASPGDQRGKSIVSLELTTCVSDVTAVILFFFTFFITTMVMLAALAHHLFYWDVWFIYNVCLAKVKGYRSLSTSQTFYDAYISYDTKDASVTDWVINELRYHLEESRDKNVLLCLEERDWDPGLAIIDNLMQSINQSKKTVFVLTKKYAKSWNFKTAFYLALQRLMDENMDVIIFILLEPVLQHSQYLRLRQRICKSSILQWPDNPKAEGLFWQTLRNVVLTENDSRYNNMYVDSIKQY
How it was run: as §1

SMILES | pEC50 (THP-1 cells; human) | pEC50 (TLR7; activity range class) | pEC50 (TLR8; activity range class) | pEC50 (THP-1 cells; human cells) | pEC50 (TLR7; activity range) | pEC50 (TLR8; activity range)
Cc1cc(C(=O)NCCn2cc3c(n2)c(N)nc2cc(-c4cc[nH]n4)ccc23)nn1C [Example 45] | 5.85 | < 4.00 | < 4.00 |  |  | 
Nc1nc2cc(-c3cc[nH]n3)ccc2c2cn(CCNC(=O)c3csc(-c4ccncc4)n3)nc12 [Example 86] | 5.56 | < 4.00 | < 4.00 |  |  | 
Nc1nc2cc(-c3cc[nH]n3)ccc2c2c1cnn2CCN1CCOCC1 [Example 436] |  |  |  | 5.56 | < 4.00 | < 4.00
CC(=O)NC(C)Cn1cc2c(N)nc3cc(-n4cccn4)ccc3c2n1 (stereo not drawn) [Example 424] |  |  |  | 5.49 | < 4.00 | < 4.00
CC(C(=O)N1CC(C)(O)C1)n1cc2c(N)nc3cc(-c4ccn[nH]4)ccc3c2n1 (stereo not drawn) [Example 578] |  |  |  | 4.73 | < 4.00 | < 4.00
CC(Cn1cc2c(N)nc3cc(-c4ccn[nH]4)ccc3c2n1)NC(=O)c1cc(F)ccn1 (stereo not drawn) [Example 295] | 6.38 | < 4.00 | < 4.00 |  |  | 
CS(=O)(=O)NCCc1cc2c(N)nc3cc(-c4cc[nH]n4)ccc3c2[nH]1 [Example 481] |  |  |  | 6.42 | < 4.00 | < 4.00
CC(C)(O)CCn1cc2c(N)nc3cc(-c4ccn[nH]4)ccc3c2n1 [Example 285] | 6.20 | < 4.00 | < 4.00 |  |  | 
Nc1nc2cc(-c3cc[nH]n3)ccc2c2cn(CC(=O)N[C@@H]3CCOC3)nc12 [Example 533] |  |  |  | 5.64 | < 4.00 | < 4.00
CC(C)(CO)Cn1cc2c(N)nc3cc(-c4cc[nH]n4)ccc3c2n1 [Example 313] | 6.59 | < 4.00 | < 4.00 |  |  | 
CC(=O)NCCn1cc2c(n1)c(N)nc1cc(-c3cc[nH]n3)ccc12 [Example 33] | 4.93 | < 4.00 | < 4.00 |  |  | 
Nc1nc2cc(-c3ccn[nH]3)ccc2c2cn(CCNC(=O)c3ccccn3)cc12 [Example 286, N-[2-[4-amino-7-(1H-pyrazol-5-yl)-2H-pyrrolo[3,4-c]quinolin-2-yl]ethyl]pyridine-2-carboxamide] | 6.39 | < 4.00 | < 4.00 |  |  | 
CC(N)CCn1cc2c(N)nc3cc(-n4cccn4)ccc3c2n1 (stereo not drawn) [Example 426] |  |  |  | 5.72 | < 4.00 | < 4.00
CCC(=O)NCCc1cc2c(N)nc3cc(-c4ccn[nH]4)ccc3c2[nH]1 [Example 154, N-{2-[4-amino-7-(1H-pyrazol-5-yl)-1H-pyrrolo[3,2-c]quinolin-2-yl]ethyl}propanamide] | 6.00 | < 4.00 | < 4.00 |  |  | 
CO[C@H](CO)Cn1cc2c(N)nc3cc(-c4cc[nH]n4)ccc3c2n1 [Example 489] |  |  |  | 6.11 | < 4.00 | < 4.00
COC(C)(C)Cn1cc2c(N)nc3cc(-c4cc[nH]n4)ccc3c2n1 [Example 322] | 6.08 | < 4.00 | < 4.00 |  |  | 
Cc1nc(C(=O)NC(C)(C)Cn2cc3c(N)nc4cc(-c5cc[nH]n5)ccc4c3n2)co1 [Example 467] |  |  |  | 6.03 | < 4.00 | < 4.00
Nc1nc2cc(-c3cc[nH]n3)ccc2c2cn(CCC(=O)Nc3ccccc3)nc12 [Example 23] | 5.86 | < 4.00 | < 4.00 |  |  | 
CC1(O)CCCC1n1cc2c(N)nc3cc(-c4cc[nH]n4)ccc3c2n1 (single isomer, unassigned) [Example 344] | 5.99 | < 4.00 | < 4.00 |  |  | 
Cc1c(CN2CCOCC2)[nH]c2c1c(N)nc1cc(-c3cc[nH]n3)ccc12 [Example 468] |  |  |  | 5.79 | < 4.00 | < 4.00
Nc1nc2cc(-c3cc[nH]n3)ccc2c2cn(CCNCc3cccnc3)nc12 [Example 110] | 4.88 | 4.00 to 4.70 | 4.70 to 6.00 |  |  | 
COCCNCc1cc2c(N)nc3cc(-c4cc[nH]n4)ccc3c2[nH]1 [Example 419] |  |  |  | 6.46 | < 4.00 | < 4.00
Nc1nc2cc(-c3cc[nH]n3)ccc2c2cn(CCN3CCCC3=O)nc12 [Example 122, 1-{2-[4-amino-7-(1H-pyrazol-3-yl)-2H-pyrazolo[3,4-c]quinolin-2-yl]ethyl}pyrrolidin-2-one] | 5.22 | < 4.00 | < 4.00 |  |  | 
CN(C)CCCn1cc2c(n1)c(N)nc1cc(-c3cc[nH]n3)ccc12 [Example 22] | 6.20 | 4.00 to 4.70 | < 4.00 |  |  | 
CNCCn1cc2c(N)nc3cc(-c4ccn[nH]4)ccc3c2n1 [Example 277] | 5.63 | < 4.00 | < 4.00 |  |  | 
CC(C(=O)NC(C)(C)CO)n1cc2c(N)nc3cc(-c4ccn[nH]4)ccc3c2n1 (stereo not drawn) [Example 574] |  |  |  | 4.85 | < 4.00 | < 4.00
Nc1nc2cc(-c3cc[nH]n3)ccc2c2cn(CCCOc3ccc(F)cc3)nc12 [Example 6] | 6.25 | < 4.00 | < 4.00 |  |  | 
Nc1nc2cc(-c3cc[nH]n3)ccc2c2cn(Cc3cscn3)nc12 [Example 168] | 6.70 | < 4.00 | 4.00 to 4.70 |  |  | 
